Legend:
[1] = molecular target: T1, human form of EphA4 receptor over-expressed in CHO-K1 cells (Homo sapiens, UniProt P54764); test: EphA4 cell-based assay (pGAS-Luc luciferase reporter in EphA4-transfected CHO-K1 cells); settings: for IC50: inflexion point, luciferase, read-out: EphA4 Cell Assay IP; for EphA4 Cell Assay maximum percent inhibition: value in parentheses
T1 construct: expressed in transfected cells; host or cells: CHO-K1
Description: A cell-based assay was used to measure the potency of the compounds on the human form of EphA4 receptor over-expressed in Chinese Hamster Ovary cell line, CHO-K1 cells (Merck Collection). The cell assay was based on a novel signaling pathway of EphA4, which involves activation of the tyrosine kinase Jak2 and the transcriptional activator Stat3 (39).
Reagents: The expression constructs of EphA4 were subcloned into the expression vector pCMV6-XL5 (Origene, MD, USA) (clone from Merck Kinase Library). The luciferase construct that was linked to the Stat1-responsive enhancer (pGAS-Luc) was bought from Stratagene (USA). The renilla construct that linked to an empty vector CMV was bought from Promega (USA).
Transfection and Luciferase Assay: CHO-K1 cells were plated in T-175 cell culture bottle in DMEM medium supplemented with 10% fetal bovine serum, 1 mM sodium pyruvate, 2 mM L-glutamine and 1.5 g/L sodium bicarbonate. When cell reached 70-80% confluence, transfections were performed in T-175 culture flasks, using Lipofectamine 2000™ transfection reagent (Invitrogen) according to the manufacturer's directions. For the luciferase assay CHO-K1 cells were co-transfected the next day with 50 μg of pGAS-Luc, 70 μg of EphA4, and 5 μg of empty vector pRL-CMV, which encoded the Renilla luciferase, and was included in the transfection mix for normalization. Six hours after transfection the cells were trypsinized and plated at 4.105 cells/ml into 96 well Black/Clear Poly-D-Lysine coated plates (Biocoat) that had been pre-spotted with compounds. Cells were lysed the next day using the Reporter Lysis Buffer (Promega), and the luciferase activity was measured using the Dual Luciferase Assay (Promega) following the manufacturer's directions. The Firefly and Renilla luminescences are read consecutively on a Top-Count (Perkin-Elmer). Results are expressed as a ratio of the two luminescence: Firefly Luciferase/Renilla Luciferase. Cell viability was assessed on parallel plates using the Cell Glo Assay (Promega) following the manufacturer's directions. Results are expressed as percent of cell death in comparison with vehicle-treated wells.
Compounds were titrated in duplicate at 10 points concentration starting at 100 μM with a 1.5 fold increment. Concentration-response curves were represented and the concentrations at the inflexion point (IP) were calculated. The maximum effect was given by the maximum percent inhibition calculated from the results of the control wells (containing only DMSO).

C2C12 cells [2] = test: Proliferation assay (cell confluence), C2C12 cells; format: cell-based, mouse; settings: at 5 μM
Procedure: C2Cl2 were plated at 15,000 cells per well and then differentiated into myotubes with DMEM supplemented with 2% horse serum for 3 days in 24 well ImageLock™ plate (Essen Instruments, MI, USA). Primary Rat cortical astrocytes were plated at 3.105 cells/ml onto 24 well ImageLock™ plate.
Cells were placed into the IncuCyte™ at 37° C. and 95% CO2/5% O2, for two to three days. During this time, the cells within each well were repeatedly imaged at fixed time intervals (every three hours). The IncuCyte™ system automatically monitored the proliferation using the percentage of confluence. Percent of confluence can be graphed over time to evaluate the characteristics of proliferation in the presence of pharmacological agents.
Compounds were tested at 5 μM in quadruplicate. The percentage of reduction of cell confluence was calculated from the AUCs in comparison with the AUCs of the control wells (1% DMSO).

C2C12 cells [3] = test: Toxicity (percent of cell death), C2C12 cells; format: cell-based; settings: 20 μM
Procedure: EphA4 kinase inhibition is assessed by both an enzymatic assay measuring the phosphorylation of a purified recombinant EphA4 kinase and a cell-based assay using the activation of pGas-Luciferase system in EphA4-transfected CHO-K1 cells. The functional effects of EphA4 RTK inhibitors on cell motility and proliferation is evaluated by the scratch wound assay. The effect of EphA4 RTK inhibitors is also directly measured on the cell confluence. The counterscreen assays (cell counterscreen, Src, Jak2 and P38α kinase) identified other potential inhibitory activities of compounds unrelated to EphA4 kinase. The toxicity is measured by the percent of cell death in the different cell assays. Values represent IC50 and IP in μM calculated from the dose-response curves. Values in parentheses give the maximum percent inhibition.

P60c-src = molecular target: T2, P60c-src (Homo sapiens, UniProt P12931); test: Src kinase counterscreen enzymatic assay (TR-FRET); format: biochemical; settings: 0.5 μM ATP
T2 construct: purchased Upstate biotechnology, USA
Procedure: Counterscreen assays were developed for the tyrosine kinases src kinase and Jak2 kinase, with a format essentially identical to the EphA4 kinase TR-FRET format. Jak2 (50 ng) (Cell Signaling, USA) was incubated with 0.5 μM of biotinylated FLT3 peptide (Cell Signaling, USA) in presence of 5 μM of ATP (Sigma). P60c-src (10 U/well) (Upstate biotechnology, USA) was incubated with biotinylated Poly(Glu Tyr) peptide (100 nM) in presence of 0.5 μM of ATP. The enzymatic reaction was stopped after 60 min by adding 15 mM EDTA. The detection reaction and energy transfer signal measurements were similar to those previously described. Results were expressed as ratios of the absorbencies 665/615.
Compounds were titrated in duplicate at 11 points concentration starting at 100 μM with a 3 fold increment. Compounds were diluted in DMSO. […] Percentage inhibition for each compound was then calculated based on the value of the 100% inhibition. Concentration-response curves were represented and the concentrations for 50% inhibition (IC50) were calculated.

P38alpha kinase = molecular target: T3, P38alpha kinase (Homo sapiens, UniProt Q16539); test: P38 alpha kinase counterscreen assay (Caliper mobility shift); format: biochemical
T3 construct: purchased Dundee Library
Procedure: A counterscreen assay was performed to measure p38alpha kinase activity using the Caliper System (LifeSciences, USA). This system is based on the microfluidic technology. P38 alpha kinase activity was measured by the shift in mobility of the non-phosphorylated form when separated by electrophoresis and detected via LED (Light Emitting Diode) induced fluorescence. This assay was automated following the manufacturer's protocol. P38alpha kinase and its substrate GST-MK2 were bought from Dundee Library.
Compounds were titrated, concentration-response curves were represented and the concentrations for 50% inhibition (IC50) were calculated.

T1 sequence (P54764 20-986): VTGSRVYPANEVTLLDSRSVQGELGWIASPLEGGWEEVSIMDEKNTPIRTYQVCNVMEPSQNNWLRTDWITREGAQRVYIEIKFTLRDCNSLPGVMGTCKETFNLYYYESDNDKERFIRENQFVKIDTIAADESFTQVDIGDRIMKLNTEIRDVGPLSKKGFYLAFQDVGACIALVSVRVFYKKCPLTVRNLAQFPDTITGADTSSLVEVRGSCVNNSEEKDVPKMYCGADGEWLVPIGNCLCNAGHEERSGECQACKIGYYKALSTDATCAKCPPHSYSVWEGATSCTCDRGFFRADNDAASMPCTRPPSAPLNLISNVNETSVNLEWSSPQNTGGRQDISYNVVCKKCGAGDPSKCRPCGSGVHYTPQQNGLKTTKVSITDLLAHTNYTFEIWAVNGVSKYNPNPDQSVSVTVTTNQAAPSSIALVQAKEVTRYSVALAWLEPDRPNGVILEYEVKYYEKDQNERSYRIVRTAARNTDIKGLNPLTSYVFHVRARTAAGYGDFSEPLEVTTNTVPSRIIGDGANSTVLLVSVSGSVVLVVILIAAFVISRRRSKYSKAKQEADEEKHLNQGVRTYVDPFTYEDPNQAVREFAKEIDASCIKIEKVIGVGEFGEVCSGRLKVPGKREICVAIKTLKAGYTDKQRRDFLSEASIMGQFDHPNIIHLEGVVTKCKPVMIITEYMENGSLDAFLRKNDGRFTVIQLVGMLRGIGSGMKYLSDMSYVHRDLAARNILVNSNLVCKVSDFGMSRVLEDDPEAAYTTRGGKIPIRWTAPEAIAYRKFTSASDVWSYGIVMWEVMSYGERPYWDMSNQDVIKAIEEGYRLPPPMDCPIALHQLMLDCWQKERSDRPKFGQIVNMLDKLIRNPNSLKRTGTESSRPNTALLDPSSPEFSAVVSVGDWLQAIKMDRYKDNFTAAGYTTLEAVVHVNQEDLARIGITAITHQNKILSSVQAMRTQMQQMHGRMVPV
T3 sequence (Q16539 whole entry): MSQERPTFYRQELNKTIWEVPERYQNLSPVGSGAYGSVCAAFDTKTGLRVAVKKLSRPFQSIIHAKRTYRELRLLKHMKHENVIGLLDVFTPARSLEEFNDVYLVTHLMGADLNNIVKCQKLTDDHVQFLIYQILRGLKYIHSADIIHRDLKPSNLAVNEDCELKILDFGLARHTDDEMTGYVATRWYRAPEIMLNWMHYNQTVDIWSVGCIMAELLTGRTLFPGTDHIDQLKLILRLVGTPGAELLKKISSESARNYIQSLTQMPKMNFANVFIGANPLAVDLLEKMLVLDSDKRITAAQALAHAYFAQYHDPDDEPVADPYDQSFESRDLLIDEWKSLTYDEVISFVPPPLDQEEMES
T2 sequence (P12931 whole entry): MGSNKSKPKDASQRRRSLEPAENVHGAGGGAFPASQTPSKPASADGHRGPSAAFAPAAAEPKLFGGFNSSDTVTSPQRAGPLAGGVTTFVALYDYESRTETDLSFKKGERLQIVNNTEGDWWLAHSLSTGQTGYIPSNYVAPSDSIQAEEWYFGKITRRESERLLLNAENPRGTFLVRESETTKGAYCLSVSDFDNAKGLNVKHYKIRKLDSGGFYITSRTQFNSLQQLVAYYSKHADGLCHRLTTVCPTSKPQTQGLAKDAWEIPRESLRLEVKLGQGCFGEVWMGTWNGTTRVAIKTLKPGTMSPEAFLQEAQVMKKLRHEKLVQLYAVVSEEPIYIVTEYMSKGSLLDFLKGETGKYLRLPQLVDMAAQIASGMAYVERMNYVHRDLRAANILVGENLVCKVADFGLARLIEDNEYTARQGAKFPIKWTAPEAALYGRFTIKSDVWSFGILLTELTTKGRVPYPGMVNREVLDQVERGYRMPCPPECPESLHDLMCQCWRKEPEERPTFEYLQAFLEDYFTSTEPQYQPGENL

Cc1ccccc1-c1nc2[nH]nc(N)c2c2c1CCC(C)(C)C2 [Example 67]
IC50 [1]: 2.3 µM | EphA4 Cell Assay maximum percent inhibition [1]: 46% | % Reduction of Confluence C2C12 Cells (C2C12 cells [2]): 49.2% at 5 μM | Max Toxicity C2C12 in cells % of cell death (C2C12 cells [3]): 10% | IC50 (P60c-src): 0.3 µM | IC50 (P38alpha kinase): 3.7 µM

CC1CCc2c(-c3ccccc3Cl)nc3[nH]nc(N)c3c2C1 (stereo not drawn) [Example 63]
IC50 [1]: 7.2 µM | EphA4 Cell Assay maximum percent inhibition [1]: 55% | % Reduction of Confluence C2C12 Cells (C2C12 cells [2]): 9.2% at 5 μM | Max Toxicity C2C12 in cells % of cell death (C2C12 cells [3]): 3% | IC50 (P60c-src): 8.3 µM | IC50 (P38alpha kinase): 7.3 µM
